According to ChEMBL document CHEMBL5678818, “Discovery of potent SOS1 inhibitors that block RAS activation via disruption of the RAS-SOS1 interaction” (Proc Natl Acad Sci U S A, 2019):

What was measured:
[1] = biological target: T1, NUAK family SNF1-like kinase 2 (Homo sapiens) (UniProt Q9H093); test: Inhibition of SNARK (unknown origin) assessed as residual activity at 100 nM by KINOMEscan analysis relative to control
T1 sequence (whole entry): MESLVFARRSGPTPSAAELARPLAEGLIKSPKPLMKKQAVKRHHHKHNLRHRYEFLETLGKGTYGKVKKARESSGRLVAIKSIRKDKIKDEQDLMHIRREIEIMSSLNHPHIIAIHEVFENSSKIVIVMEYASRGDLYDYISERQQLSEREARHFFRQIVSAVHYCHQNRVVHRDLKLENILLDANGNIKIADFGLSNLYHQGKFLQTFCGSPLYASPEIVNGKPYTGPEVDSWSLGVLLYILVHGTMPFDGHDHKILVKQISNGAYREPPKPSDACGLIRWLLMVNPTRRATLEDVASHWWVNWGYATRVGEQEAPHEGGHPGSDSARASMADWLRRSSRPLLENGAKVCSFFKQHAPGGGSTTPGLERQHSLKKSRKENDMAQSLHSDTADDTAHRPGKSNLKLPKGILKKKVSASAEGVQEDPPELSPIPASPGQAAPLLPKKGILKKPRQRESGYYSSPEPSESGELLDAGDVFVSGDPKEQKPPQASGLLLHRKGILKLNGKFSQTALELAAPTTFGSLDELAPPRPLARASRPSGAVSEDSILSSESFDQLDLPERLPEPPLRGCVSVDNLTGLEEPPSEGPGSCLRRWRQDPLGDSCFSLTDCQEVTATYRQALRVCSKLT

[2] = system: Phosphatidylinositol 4,5-bisphosphate 3-kinase catalytic subunit alpha isoform (Homo sapiens), P42336 [H1047L]; test: Inhibition of PIK3CA H1047L mutant (unknown origin) assessed as residual activity at 100 nM by KINOMEscan analysis relative to control
[3] = system: Phosphatidylinositol 4,5-bisphosphate 3-kinase catalytic subunit alpha isoform (Homo sapiens), P42336 [E542K]; test: Inhibition of PIK3CA E542K mutant (unknown origin) assessed as residual activity at 100 nM by KINOMEscan analysis relative to control
[4] = biological target: Death-associated protein kinase 3 (Homo sapiens) (UniProt O43293); test: Inhibition of DAPK3 (unknown origin) assessed as residual activity at 100 nM by KINOMEscan analysis relative to control
[5] = biological target: Epidermal growth factor receptor (Homo sapiens, UniProt P00533); test: Inhibition of EGFR (unknown origin) assessed as residual activity at 100 nM by KINOMEscan analysis relative to control
[6] = biological target: T2, cGMP-dependent protein kinase 2 (Homo sapiens) (UniProt Q13237); test: Inhibition of PRKG2 (unknown origin) assessed as residual activity at 100 nM by KINOMEscan analysis relative to control
T2 sequence (whole entry): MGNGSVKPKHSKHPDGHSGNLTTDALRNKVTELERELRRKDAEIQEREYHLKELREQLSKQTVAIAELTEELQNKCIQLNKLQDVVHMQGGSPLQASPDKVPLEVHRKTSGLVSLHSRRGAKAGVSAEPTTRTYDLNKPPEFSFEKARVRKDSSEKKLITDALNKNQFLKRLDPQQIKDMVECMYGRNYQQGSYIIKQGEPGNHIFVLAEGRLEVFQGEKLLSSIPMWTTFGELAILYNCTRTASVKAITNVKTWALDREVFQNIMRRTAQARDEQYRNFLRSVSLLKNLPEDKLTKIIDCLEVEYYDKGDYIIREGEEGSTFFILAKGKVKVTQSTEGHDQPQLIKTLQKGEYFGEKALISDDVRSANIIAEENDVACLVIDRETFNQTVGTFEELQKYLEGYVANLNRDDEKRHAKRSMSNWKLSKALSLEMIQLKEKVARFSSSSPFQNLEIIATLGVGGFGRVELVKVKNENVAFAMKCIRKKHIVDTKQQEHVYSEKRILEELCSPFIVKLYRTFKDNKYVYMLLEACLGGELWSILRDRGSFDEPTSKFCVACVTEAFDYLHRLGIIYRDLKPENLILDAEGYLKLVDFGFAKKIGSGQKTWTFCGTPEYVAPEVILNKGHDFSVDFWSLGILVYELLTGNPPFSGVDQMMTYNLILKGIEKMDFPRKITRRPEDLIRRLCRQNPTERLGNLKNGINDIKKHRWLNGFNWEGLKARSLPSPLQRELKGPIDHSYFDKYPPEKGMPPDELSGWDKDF

[7] = biological target: Serine/threonine-protein kinase/endoribonuclease IRE1 (Homo sapiens) (UniProt O75460); test: Inhibition of ERN1 (unknown origin) assessed as residual activity at 100 nM by KINOMEscan analysis relative to control
[8] = biological target: T3, Serine/threonine-protein kinase RIO1 (Homo sapiens) (UniProt Q9BRS2); test: Inhibition of RIOK1 (unknown origin) assessed as residual activity at 100 nM by KINOMEscan analysis relative to control
T3 sequence (whole entry): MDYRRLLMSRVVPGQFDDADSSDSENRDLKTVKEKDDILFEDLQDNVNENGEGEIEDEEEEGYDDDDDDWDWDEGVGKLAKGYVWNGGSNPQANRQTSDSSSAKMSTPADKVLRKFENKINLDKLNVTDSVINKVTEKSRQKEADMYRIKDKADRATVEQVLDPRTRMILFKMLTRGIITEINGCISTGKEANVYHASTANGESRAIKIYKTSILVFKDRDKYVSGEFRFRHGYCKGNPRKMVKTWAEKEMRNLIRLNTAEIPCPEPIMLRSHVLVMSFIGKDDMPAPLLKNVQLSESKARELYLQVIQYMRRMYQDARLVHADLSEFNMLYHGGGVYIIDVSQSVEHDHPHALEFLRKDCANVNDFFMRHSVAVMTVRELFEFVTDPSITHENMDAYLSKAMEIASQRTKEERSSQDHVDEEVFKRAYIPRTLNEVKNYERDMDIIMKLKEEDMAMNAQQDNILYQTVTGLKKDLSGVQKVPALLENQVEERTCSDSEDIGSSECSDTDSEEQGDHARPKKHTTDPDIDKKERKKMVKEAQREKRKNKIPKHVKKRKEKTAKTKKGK

Chain of Phosphatidylinositol 4,5-bisphosphate 3-kinase catalytic subunit alpha isoform (Homo sapiens), P42336 [H1047L] (P42336 whole entry H1047L, canonical isoform): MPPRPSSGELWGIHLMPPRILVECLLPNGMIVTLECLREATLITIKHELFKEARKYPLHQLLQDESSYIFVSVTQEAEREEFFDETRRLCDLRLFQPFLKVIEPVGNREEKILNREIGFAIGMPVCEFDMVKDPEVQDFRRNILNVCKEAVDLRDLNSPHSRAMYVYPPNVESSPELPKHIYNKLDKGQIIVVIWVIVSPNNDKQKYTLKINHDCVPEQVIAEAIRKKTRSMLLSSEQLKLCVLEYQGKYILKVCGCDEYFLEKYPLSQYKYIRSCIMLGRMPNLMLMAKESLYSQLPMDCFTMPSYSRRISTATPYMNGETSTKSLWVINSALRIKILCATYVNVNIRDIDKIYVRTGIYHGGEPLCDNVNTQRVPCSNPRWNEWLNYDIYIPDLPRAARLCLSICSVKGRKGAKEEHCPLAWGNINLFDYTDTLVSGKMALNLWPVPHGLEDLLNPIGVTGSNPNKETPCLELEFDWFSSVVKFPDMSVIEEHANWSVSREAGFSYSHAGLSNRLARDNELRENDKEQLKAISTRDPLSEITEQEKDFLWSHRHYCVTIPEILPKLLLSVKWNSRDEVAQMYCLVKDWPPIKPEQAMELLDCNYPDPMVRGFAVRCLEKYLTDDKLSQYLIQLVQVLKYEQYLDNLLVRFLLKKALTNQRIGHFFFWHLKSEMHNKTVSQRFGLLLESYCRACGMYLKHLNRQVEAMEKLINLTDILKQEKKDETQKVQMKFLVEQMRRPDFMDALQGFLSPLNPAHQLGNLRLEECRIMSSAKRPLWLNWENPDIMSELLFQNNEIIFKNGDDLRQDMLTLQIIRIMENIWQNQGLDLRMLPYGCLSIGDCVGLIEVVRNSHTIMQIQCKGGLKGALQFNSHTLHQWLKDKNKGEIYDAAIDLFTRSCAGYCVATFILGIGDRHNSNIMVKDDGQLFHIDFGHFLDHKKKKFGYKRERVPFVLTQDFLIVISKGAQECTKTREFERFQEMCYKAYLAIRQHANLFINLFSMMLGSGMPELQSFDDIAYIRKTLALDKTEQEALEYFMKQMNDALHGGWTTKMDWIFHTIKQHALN
Chain of Death-associated protein kinase 3 (Homo sapiens) (O43293 whole entry, looked up): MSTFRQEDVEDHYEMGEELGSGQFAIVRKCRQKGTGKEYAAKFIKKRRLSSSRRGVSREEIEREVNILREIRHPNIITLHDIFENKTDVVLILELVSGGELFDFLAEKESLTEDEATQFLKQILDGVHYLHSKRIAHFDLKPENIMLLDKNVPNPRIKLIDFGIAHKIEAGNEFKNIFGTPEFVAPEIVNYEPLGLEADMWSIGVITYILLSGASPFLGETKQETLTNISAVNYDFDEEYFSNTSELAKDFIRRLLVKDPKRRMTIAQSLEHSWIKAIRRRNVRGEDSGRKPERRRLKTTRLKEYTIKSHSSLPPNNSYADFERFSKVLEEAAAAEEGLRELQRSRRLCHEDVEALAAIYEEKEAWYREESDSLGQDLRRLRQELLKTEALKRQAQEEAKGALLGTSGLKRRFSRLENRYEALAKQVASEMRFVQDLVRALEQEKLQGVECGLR
Chain of Phosphatidylinositol 4,5-bisphosphate 3-kinase catalytic subunit alpha isoform (Homo sapiens), P42336 [E542K] (P42336 whole entry E542K, canonical isoform): as the sequence (P42336 whole entry H1047L, canonical isoform) above, with E542K, L1047H counted along it
Chain of Epidermal growth factor receptor (P00533 whole entry): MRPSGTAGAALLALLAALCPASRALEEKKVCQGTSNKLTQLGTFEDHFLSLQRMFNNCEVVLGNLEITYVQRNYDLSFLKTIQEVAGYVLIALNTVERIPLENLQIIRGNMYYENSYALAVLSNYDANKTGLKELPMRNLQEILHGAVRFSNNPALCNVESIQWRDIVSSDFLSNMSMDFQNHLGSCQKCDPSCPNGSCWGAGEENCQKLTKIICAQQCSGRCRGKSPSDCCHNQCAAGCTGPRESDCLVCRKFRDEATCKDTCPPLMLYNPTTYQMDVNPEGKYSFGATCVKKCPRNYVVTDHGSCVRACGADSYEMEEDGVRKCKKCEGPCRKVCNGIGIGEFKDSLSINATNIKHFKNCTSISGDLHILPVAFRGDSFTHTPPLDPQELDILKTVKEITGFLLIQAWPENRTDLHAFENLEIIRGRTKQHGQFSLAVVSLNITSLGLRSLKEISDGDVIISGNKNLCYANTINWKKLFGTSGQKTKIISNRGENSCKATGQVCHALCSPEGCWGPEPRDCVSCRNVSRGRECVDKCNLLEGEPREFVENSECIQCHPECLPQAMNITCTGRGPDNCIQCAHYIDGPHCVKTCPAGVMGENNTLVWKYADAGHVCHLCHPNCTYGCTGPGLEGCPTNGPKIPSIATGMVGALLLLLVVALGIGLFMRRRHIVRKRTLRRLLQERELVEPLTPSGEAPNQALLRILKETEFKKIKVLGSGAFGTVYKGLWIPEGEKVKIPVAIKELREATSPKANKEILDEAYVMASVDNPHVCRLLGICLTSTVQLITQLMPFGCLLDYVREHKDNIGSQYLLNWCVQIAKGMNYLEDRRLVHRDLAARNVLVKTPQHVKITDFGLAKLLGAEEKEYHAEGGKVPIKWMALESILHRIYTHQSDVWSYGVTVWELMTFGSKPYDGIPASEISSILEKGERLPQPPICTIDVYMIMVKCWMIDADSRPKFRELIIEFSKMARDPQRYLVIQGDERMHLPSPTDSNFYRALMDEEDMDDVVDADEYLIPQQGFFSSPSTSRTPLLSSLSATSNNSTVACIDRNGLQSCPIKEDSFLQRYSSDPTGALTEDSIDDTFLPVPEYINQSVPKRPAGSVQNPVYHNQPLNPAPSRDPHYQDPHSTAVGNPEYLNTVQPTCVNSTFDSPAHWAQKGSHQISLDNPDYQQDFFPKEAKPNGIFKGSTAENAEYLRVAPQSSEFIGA
Chain of Serine/threonine-protein kinase/endoribonuclease IRE1 (Homo sapiens) (O75460 19-977 limits assumed): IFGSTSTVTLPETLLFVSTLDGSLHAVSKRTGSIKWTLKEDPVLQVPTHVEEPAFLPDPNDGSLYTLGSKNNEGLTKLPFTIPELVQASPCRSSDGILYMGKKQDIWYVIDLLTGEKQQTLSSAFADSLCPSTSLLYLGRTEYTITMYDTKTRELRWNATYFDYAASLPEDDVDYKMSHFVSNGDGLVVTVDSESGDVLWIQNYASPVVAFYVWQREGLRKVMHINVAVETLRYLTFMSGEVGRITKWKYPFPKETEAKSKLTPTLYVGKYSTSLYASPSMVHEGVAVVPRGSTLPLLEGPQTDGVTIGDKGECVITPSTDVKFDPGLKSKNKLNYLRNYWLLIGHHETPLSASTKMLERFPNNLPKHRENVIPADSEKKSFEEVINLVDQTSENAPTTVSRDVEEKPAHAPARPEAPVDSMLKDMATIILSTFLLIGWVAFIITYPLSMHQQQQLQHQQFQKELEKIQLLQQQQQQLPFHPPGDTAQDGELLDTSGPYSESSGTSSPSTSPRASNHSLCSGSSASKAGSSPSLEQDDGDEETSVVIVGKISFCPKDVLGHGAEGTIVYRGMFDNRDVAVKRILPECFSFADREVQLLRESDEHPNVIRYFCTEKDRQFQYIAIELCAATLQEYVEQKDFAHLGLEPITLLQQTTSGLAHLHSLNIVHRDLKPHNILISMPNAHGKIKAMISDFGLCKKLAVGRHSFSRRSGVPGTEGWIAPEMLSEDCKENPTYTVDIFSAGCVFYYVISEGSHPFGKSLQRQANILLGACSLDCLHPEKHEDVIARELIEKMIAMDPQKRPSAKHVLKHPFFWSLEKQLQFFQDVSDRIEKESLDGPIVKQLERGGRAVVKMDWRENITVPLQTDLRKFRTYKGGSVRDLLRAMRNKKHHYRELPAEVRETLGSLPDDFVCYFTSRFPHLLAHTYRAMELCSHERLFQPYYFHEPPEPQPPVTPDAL

## COc1cc2ncnc(N[C@H](C)c3cccc4ccccc34)c2cc1OC
[1]
  Activity: 92%
[2]
  Activity: 73%
[3]
  Activity: 74%
[4]
  Activity: 100%
[5]
  Activity: 93%
[6]
  Activity: 70%
[7]
  Activity: 96%
[8]
  Activity: 58%
